Laboratory results taken from patent US8772300B2, “Phenyl or pyridinyl-ethynyl derivatives” (Hoffmann-La Roche Inc., priority 2011, dated 2014).

Molecular target: T1, human mGlu5a receptor (Homo sapiens, UniProt P41594)
T1 construct: expressed in transfected cells
Assay: Intracellular Ca2+ mobilization assay (mGlu5 PAM)
Format: cell-based
Conditions: for Emax: HEK293, maximal response in % of the maximal stimulatory effect obtained with saturating concentrations of L-glutamate, HEK-293 human mGlu5a cells, read-out: Eff. (%); for EC50: HEK-293 cells stably transfected with human mGlu5a receptor, L-glutamate added at EC20 (typically around 80 μM) after 10-30 min pre-incubation with test compound, read-out: EC50 (nM) mGlu5PAM
Protocol: A monoclonal HEK-293 cell line stably transfected with a cDNA encoding for the human mGlu5a receptor was generated; for the work with mGlu5 Positive Allosteric Modulators (PAMs), a cell line with low receptor expression levels and low constitutive receptor activity was selected to allow the differentiation of agonistic versus PAM activity. Cells were cultured according to standard protocols (Freshney, 2000) in Dulbecco's Modified Eagle Medium with high glucose supplemented with 1 mM glutamine, 10% (vol/vol) heat-inactivated bovine calf serum, Penicillin/Streptomycin, 50 μg/ml hygromycin and 15 μg/ml blasticidin (all cell culture reagents and antibiotics from Invitrogen, Basel, Switzerland).
About 24 hrs before an experiment, 5×10^4 cells/well were seeded in poly-D-lysine coated, black/clear-bottomed 96-well plates. The cells were loaded with 2.5 μM Fluo-4AM in loading buffer (1×HBSS, 20 mM HEPES) for 1 hr at 37° C. and washed five times with loading buffer. The cells were transferred into a Functional Drug Screening System 7000 (Hamamatsu, Paris, France), and 11 half logarithmic serial dilutions of test compound at 37° C. were added and the cells were incubated for 10-30 min with on-line recording of fluorescence. Following this pre-incubation step, the agonist L-glutamate was added to the cells at a concentration corresponding to EC20 (typically around 80 μM) with on-line recording of fluorescence; in order to account for day-to-day variations in the responsiveness of cells, the EC20 of glutamate was determined immediately ahead of each experiment by recording of a full dose-response curve of glutamate.
Responses were measured as peak increase in fluorescence minus basal (i.e. fluorescence without addition of L-glutamate), normalized to the maximal stimulatory effect obtained with saturating concentrations of L-glutamate. Graphs were plotted with the % maximal stimulatory using XLfit, a curve fitting program that iteratively plots the data using Levenburg Marquardt algorithm. The single site competition analysis equation used was y=A+((B−A)/(1+((x/C)D))), where y is the % maximal stimulatory effect, A is the minimum y, B is the maximum y, C is the EC50, x is the log 10 of the concentration of the competing compound and D is the slope of the curve (the Hill Coefficient). From these curves the EC50 (concentration at which half maximal stimulation was achieved), the Hill coefficient as well as the maximal response in % of the maximal stimulatory effect obtained with saturating concentrations of L-glutamate were calculated.
A depression of the signal observed after addition of the EC20 concentration of L-glutamate was indicative of an inhibitory activity of the test compound.

T1 sequence (P41594 21-1180 isoform P41594-2 limits assumed): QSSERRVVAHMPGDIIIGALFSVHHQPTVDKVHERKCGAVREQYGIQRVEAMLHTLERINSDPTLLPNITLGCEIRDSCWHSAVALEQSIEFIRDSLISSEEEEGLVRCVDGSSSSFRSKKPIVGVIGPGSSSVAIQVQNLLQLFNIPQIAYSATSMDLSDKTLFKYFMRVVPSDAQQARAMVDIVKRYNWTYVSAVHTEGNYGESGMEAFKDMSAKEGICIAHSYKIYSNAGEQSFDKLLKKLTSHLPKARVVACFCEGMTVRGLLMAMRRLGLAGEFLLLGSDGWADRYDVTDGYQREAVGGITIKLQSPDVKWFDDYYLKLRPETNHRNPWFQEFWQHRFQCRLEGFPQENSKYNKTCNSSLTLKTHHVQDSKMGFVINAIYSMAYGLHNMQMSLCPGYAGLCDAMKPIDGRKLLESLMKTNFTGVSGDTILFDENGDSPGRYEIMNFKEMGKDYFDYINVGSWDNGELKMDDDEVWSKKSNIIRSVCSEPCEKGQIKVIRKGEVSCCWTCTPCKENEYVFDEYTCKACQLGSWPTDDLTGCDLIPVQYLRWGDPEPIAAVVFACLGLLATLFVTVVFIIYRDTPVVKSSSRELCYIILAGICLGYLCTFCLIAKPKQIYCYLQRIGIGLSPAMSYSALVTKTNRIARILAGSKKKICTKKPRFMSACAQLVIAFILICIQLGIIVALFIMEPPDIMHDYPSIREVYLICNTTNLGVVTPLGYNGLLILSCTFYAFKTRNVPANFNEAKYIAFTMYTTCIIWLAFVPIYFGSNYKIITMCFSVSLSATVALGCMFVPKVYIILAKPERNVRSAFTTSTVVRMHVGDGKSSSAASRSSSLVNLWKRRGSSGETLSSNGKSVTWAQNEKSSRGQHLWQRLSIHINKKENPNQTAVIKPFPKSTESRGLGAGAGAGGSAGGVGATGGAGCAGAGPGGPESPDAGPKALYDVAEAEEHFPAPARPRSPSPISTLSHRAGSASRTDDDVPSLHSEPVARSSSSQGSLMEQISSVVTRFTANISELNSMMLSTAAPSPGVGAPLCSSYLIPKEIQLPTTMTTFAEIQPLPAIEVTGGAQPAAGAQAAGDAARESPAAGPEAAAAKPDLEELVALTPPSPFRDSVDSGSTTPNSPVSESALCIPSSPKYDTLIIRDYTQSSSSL

Emax [%] | EC50 [nM] | SMILES
59 | 24 | CN(C(=O)c1ccc(C#Cc2ccc(F)cc2)cn1)C1(C)CC1 [Example 32, 5-(4-Fluoro-phenylethynyl)-pyridine-2-carboxylic Acid methyl-(1-methyl-cyclopropyl)-amide]
51 | 62 | O=C(c1ncc(C#Cc2ccccc2)cn1)N1CC(F)(F)C1 [Example 45, (3,3-Difluoro-azetidin-1-yl)-(5-phenylethynyl-pyrimidin-2-yl)-methanone]
57 | 44 | CN(C(=O)c1ccc(C#Cc2cncc(Cl)c2)cn1)C1(C(F)(F)F)CC1 [Example 53, 5-(5-Chloro-pyridin-3-ylethynyl)-pyridine-2-carboxylic Acid methyl-(1-trifluoromethyl-cyclopropyl)-amide]
83 | 61 | CC(NC(=O)c1ccc(C#Cc2cccc(Cl)c2)cn1)C(F)(F)F (racemic) [Example 61, (RS)-5-(3-Chloro-phenylethynyl)-pyridine-2-carboxylic Acid (2,2,2-trifluoro-1-methyl-ethyl)-amide]
96 | 34 | CN(C(=O)c1ncc(C#Cc2ccccc2)cc1C#N)C(C)(C)C [Example 52, 3-Cyano-5-phenylethynyl-pyridine-2-carboxylic Acid tert-butyl-methyl-amide]

Continued, molecule first:

SMILES | Emax [%] | EC50 [nM]
Cc1cc(C#Cc2cncc(Cl)c2)cnc1C(=O)N(C)C(C)(C)C [Example 20, 5-(5-Chloro-pyridin-3-ylethynyl)-3-methyl-pyridine-2-carboxylic Acid tert-butyl-methyl-amide] | 26 | 102
CC1(C)CCCN(C(=O)c2ncc(C#Cc3ccccc3)cn2)C1 [Example 46, (3,3-Dimethyl-piperidin-1-yl)-(5-phenylethynyl-pyrimidin-2-yl)-methanone] | 59 | 50
CN(C(=O)c1ccc(C#Cc2cc(F)ccc2F)cn1)C1(C)COC1 [Example 29, 5-(2,5-Difluoro-phenylethynyl)-pyridine-2-carboxylic Acid methyl-(3-methyl-oxetan-3-yl)-amide] | 45 | 21
CC(C)(C)NC(=O)c1ccc(C#Cc2ccccc2)cn1 [Example 1, 5-Phenylethynyl-pyridine-2-carboxylic Acid tert-butylamide] | 115 | 49
Cc1cc(C#Cc2ccc(F)cc2)cnc1C(=O)N(C)C(C)(C)C [Example 18, 5-(4-Fluoro-phenylethynyl)-3-methyl-pyridine-2-carboxylic Acid tert-butyl-methyl-amide] | 71 | 76
CN(C(=O)c1ccc(C#Cc2ccc(F)cc2)cn1)C1(C)COC1 [Example 28, 5-(4-Fluoro-phenylethynyl)-pyridine-2-carboxylic Acid methyl-(3-methyl-oxetan-3-yl)-amide] | 68 | 37
